The subject of data set [1] is wildtype mice. In words: hypothermia and hypomotility (temperature and 5 minute motility in openfield activity chamber) in wildtype mice. Format: in vivo, mouse. As to the method:
Many CB1 agonists are known to induce psychotrophic associated “tetrad effects” due to central binding to CB receptors [Howlett, A. C. et al, International Union of Pharmacology. XXVII, Pharmacol. Rev. 2002, 54, 161-202]. Studies were undertaken to investigate whether the compounds of the present invention also bound to central CB1 receptors. This is assessed by measuring the ability of the compounds to induce sedation, ptosis, hypomotility, catalepsy and hypothermia in normal mice [Brooks, J. W. et al, Eur. J. Pharmacol. 2002, 439, 83-92], following i.v., i.p. and oral administration.
A CNS excluded compound provides a tool for examining if a component of a cannabinoid anti-spastic effect is mediated via peripheral CB receptors. […] As stated above there is no established role for peripheral cannabinoid receptors in the control of spasticity, however, spasticity is likely to be a product of nerve damage in the spinal cord, at least in EAE, [Baker, D. et al, FASEB J. 2001, 15, 300-302; Baker, D. et al, J. Neuroimmunol. 1990, 28, 261-270] and aberrant signals to and from the musculature are likely, at least in part to contribute to the muscle spasms occurring in spasticity.

The test system of data set [2] is CREAE mice. In words: assessment of spasticity in CREAE mice (resistance to full flexion of hindlimbs against a strain gauge). Format: in vivo, mouse. As to the method: Spasticity developed following the development of chronic EAE induced by injection of mouse spinal cord homogenate in Freund's complete adjuvant on day 0 & 7. This occurred 60-80 days post-induction in wildtype ABH.Cnr1+/+ mice and 30-40 days post-induction in CB1 receptor gene (Cnr1)-deficient ABH.Cnr1−/− mice). Spasticity was assessed by resistance to full flexion of hindlimbs against a strain gauge [Baker et al 2000], before and after treatment with either the full CB1/CB2 agonist CP55,940 or full CB1/CB2/“CB3” agonist injected intraperitoneally or compound (16) injected intravenously in vehicle (alcohol:cremophor:PBS (1:1:18)). […] Statistical analysis was performed on raw data and were analysed pairwise from baseline levels (*** P<0.001).
Further studies were undertaken using cannabinoid knockout mice, including CB1, CB2, VR-1, FAAH and conditional CB1 knockout mice. […] Spasticity is assessed (n=6-7/group) by resistance to hindlimb flexion using a strain gauge [Baker, D. et al, Nature 2000, 404, 84-87]. Animals serve as their own controls and will be analysed in a pairwise fashion. […] Low doses of CB1 agonists and CNS active CP55,940, as control, are locally (subcutaneous, intra-muscularly) administered into spastic ABH mice and the lack of activity in a contralateral limb analysed [Fox, A. et al, Pain 2001, 92, 91-100]. […]

Data set [3] concerns the target T1, CB1 receptor (Mus musculus, UniProt P47746).
T1 construct: from tissue; host or cells: mouse vas deferens (isolated tissue preparation)
In words: vas deferens inhibition of contractions (cannabinoid receptor modulating activity).

SMILES strings stand for the structures. Entries after “also recorded” stand apart in the source; their conditions may differ. Read-outs that look alike come from different tables or passages of the source.

T1 sequence (P47746 whole entry): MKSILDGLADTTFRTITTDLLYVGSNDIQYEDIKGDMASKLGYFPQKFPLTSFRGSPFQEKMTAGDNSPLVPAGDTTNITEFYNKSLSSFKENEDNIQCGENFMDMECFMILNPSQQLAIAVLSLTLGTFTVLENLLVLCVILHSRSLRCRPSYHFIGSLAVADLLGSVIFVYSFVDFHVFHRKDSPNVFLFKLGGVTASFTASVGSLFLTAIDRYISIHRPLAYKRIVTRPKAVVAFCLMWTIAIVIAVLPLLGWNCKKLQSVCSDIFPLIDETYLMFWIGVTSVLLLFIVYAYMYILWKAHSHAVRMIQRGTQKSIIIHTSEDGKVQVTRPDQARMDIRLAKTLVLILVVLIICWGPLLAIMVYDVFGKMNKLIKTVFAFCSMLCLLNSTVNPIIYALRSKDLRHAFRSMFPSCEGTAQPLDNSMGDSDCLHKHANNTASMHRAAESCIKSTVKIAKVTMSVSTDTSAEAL

Turning to `CC(CO)NC(=O)c1cccc(/C=C\CCCC(=O)N(C)C)c1` (racemic) [Compound 16, 3-(5-Dimethylcarbamoyl-pent-1-enyl)-N-(2-hydroxy-1-methyl-ethyl)benzamide], the “CNS effects: hypothermia and hypomotility” value in data set [1] (wildtype mice, 20 mg/kg i.v.) is “inactive”; in data set [1] (wildtype/normal mice, 1 mg/kg, 20 min after injection, 1 mg/kg), “inactive; also recorded: no hypothermia or hypomotility was observed”. In addition, the anti-spastic activity result is recorded as “active” in data set [2] (administered in PBS alone (not shown)) and “significant anti-spastic activity; also recorded: marked effect on spasticity; also recorded: selective inhibition of spasticity without producing CNS effects” in data set [2] (wildtype ABH mice with CREAE, injected intravenously in alcohol:cremophor:PBS (1:1:18), 10 minutes after administration). The “effect of CB1 antagonist SR141716A on the compound's effect in vas deferens” value in data set [3] (in presence of SR141716A) is “neutralised by the CB1-antagonist SR141716A; also recorded: inhibited by the selective CB1 antagonist SR141716A”. Further, the IC50 in data set [3] (mouse vas deferens preparation, FIG. 1, read-out: IC50, vas deferens preparation) was about 1 nM; in data set [3] (rat vas deferens, FIG. 1 legend, read-out: IC50, inhibition of contractions), about 0.1 nM.
`Cc1c(C(=O)c2cccc3ccccc23)c2cccc3c2n1[C@H](CN1CCOCC1)CO3` [R(+)WIN55,212, reference compound]: the “CNS effects: temperature and motility” value in data set [1] (wildtype mice, 20 min after injection, dose not given) is “induced typical cannabinmimetic effects”.

The record behind these values is US8293796B2, “Modulator” (University College London, priority 2004, dated 2012).
